For test [1], the target named is T1, CorC (TpCorC) (Thermus parvatiensis, UniProt A0A109QFA5).
T1 sequence (A0A109QFA5 207-348): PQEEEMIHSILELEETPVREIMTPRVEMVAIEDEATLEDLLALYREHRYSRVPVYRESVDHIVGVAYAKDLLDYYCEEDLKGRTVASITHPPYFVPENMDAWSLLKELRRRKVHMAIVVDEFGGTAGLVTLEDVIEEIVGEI
Description: FRET from endogenous Trp to bound mant fluorophore, saturation binding.

Test [2] deals with ATP-binding site mutant of the TpCorC cross-linking construct (T106C/C282A/Y255A/T336I) (Thermus parvatiensis). Description: cross-linking.
For test [3], the target named is T1, CorC (TpCorC). Description: competitive displacement of mant-ATP. Format: binding.
The target of test [4] is TpCorC inter-subunit cross-linking mutant (T106C/C282A) (Thermus parvatiensis). Description: cross-linking.

Take `CNc1ccccc1C(=O)O[C@H]1[C@@H](O)[C@H](n2cnc3c(N)ncnc32)O[C@@H]1CO[P@@](=O)(O)O[P@](=O)(O)OP(=O)(O)O` [mant-ATP, 2′(3′)-O-(N-methylanthraniloyl)adenosine 5′-triphosphate]: in test [1], binding was put at a Kd of 1360 ± 100 nM.

For “ATP-binding site mutant of the TpCorC cross-linking construct (T106C/C282A/Y255A/T336I) (natural protein)”, the stoichiometry N (usually a count of units in the complex or per binding partner) in test [2] came to 2.

Take `Nc1ncnc2c1ncn2[C@@H]1O[C@H](COP(=O)(O)OP(=O)(O)OP(=O)(O)O)[C@@H](O)[C@H]1O` [ATP]: the half-maximal inhibitory concentration (IC50) (usually the concentration that inhibits the measured activity by half) in test [3] came to 570 ± 80 nM.

“TpCorC inter-subunit cross-linking mutant (T106C/C282A) (natural protein)”: the stoichiometry N in test [4] amounted to 2.

(Values after paper PMC8066426 (iScience, 2021).)
